Laboratory results published in US10519211B2, “Compounds as peptidic GLP1/glucagon/GIP receptor agonists” (SANOFI, priority 2016, dated 2019).
Numbered stars: 1 amine (or outer) side, 2 acyl side, 3 side chain; on linkers, the order of the positions; unused ones are H or OH. Square brackets hold non-standard residues; d marks the D form. Side chains are listed from the residue outwards. Peptide text beside a SMILES is read from it. * marks the point of attachment. Adipoyl(4R-palmitoylamino) = CCCCCCCCCCCCCCCC(=O)N[C@H](CCC(=O)*)CC(=O)O; γGlu = O=C(O)[C@H](CCC(=O)[*:2])N[*:1]; Palmitoyl = CCCCCCCCCCCCCCCC(=O)*; AEEA = NCCOCCOCC(=O)O; Aib = CC(C)(N)C(=O)O

Columns and labels:
[1] = biological target: T1, human GLP-1 receptor (hGLP-1 R) (Homo sapiens, UniProt P43220); assay: cAMP response (HTRF) of HEK-293 cells stably expressing human GLP-1 receptor; assay type: cell-based; details: Table 8; cAMP formation
T1 construct: expressed in transfected cells; host or cells: HEK-293
T1 sequence (P43220 24-463): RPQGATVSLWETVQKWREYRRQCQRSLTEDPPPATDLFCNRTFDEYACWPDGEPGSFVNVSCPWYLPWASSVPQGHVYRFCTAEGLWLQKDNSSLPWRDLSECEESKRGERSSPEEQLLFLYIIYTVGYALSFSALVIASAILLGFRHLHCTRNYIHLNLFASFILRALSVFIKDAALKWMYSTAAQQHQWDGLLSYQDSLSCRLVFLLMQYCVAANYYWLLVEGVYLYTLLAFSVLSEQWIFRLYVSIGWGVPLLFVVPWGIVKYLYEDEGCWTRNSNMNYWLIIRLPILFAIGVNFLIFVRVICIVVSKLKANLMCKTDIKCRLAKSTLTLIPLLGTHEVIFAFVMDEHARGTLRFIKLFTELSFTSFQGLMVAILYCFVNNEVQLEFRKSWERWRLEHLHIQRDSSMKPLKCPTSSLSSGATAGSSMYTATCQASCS
Protocol: (§1) cAMP content of cells was determined using a kit from Cisbio Corp. (cat. no. 62AM4PEJ) based on HTRF (Homogenous Time Resolved Fluorescence). For preparation, cells were split into T175 culture flasks and grown overnight to near confluency in medium (DMEM/10% FBS). Medium was then removed and cells washed with PBS lacking calcium and magnesium, followed by proteinase treatment with accutase (Sigma-Aldrich cat. no. A6964). Detached cells were washed and resuspended in assay buffer (1×HBSS; 20 mM HEPES, 0.1% BSA, 2 mM IBMX) and cellular density determined. They were then diluted to 400000 cells/ml and 25 μl-aliquots dispensed into the wells of 96-well plates. For measurement, 25 μl of test compound in assay buffer was added to the wells, followed by incubation for 30 minutes at room temperature.
(§2) Potencies of peptidic compounds at the GLP-1, glucagon and GIP receptors were determined by exposing cells expressing human glucagon receptor (hGlucagon R), human GIP receptor (hGIP-R) or human GLP-1 receptor (hGLP-1 R) to the listed compounds at increasing concentrations and measuring the formed cAMP as described in Methods.

[2] = Thioflavin T (ThT) assay for physical stability (fibrillation); assay type: physicochemical; details: 3 mg/ml, 100 mM acetate pH 4.5 with m-cresol, shaking at 37° C.
Protocol: Investigations were carried out to determine fibrillation tendencies under stress conditions by shaking at 37° C. within Fluoroskan Ascent FL.
For the tests in Fluoroskan Ascent FL, 200 μL sample were placed into a 96 well mictrotiter plate PS, flat bottom, Greiner Fluotrac No. 655076. Plates were sealed with Scotch Tape (Quiagen). Samples were stressed by continuous cycles of 10 s shaking at 960 rpm and 50 s rest period at 37° C. The kinetic was monitored by measuring fluorescence intensity every 20 minutes.
Peptides were diluted in a buffer system to a final concentration of 3 mg/ml. 20 μL of a 10.1 mM ThT solution in H2O were added to 2 mL of peptide solution to receive a final concentration of 100 μM ThT. For each sample eight replicates were tested.
Tht buffer system A) 100 mM Acetate pH 4.5 including m-cresol (100 mM Natriumacetat trihydrat, pH adjustment using 2N CH3COOH, 2.7 mg/mL m-cresol) Tht buffer system B) 100 mM citrate buffer pH 6.0
Lag time in hours in Thioflavin T (ThT) assay of peptide samples was determined in Tht buffer system A as described in Methods.

[3] = Solubility assessment (UPLC-UV); assay type: physicochemical; details: acetate buffer pH 4.5, 2.7 mg/ml m-cresol (buffer system A), target 10 mg/ml
Protocol: Prior to the solubility measurement of a peptide batch, its purity was determined through UPLC/MS.
Therefore solutions from solid samples were prepared in a buffer systems with a concentration of 10 mg/mL compound based on the previously determined % purity:
Solubility buffer system A) Acetate Buffer pH 4.5, 100 mM sodium acetate trihydrate, 2.7 mg/ml m-Cresol
UPLC-UV was performed after 1 hour of gentle agitation from the supernatant, which was obtained after 15 min of centrifugation at 2500 RCF (relative centrifugal acceleration).
The solubility was determined by the comparison of the UV peak area of 2 μL-injection of a buffered sample diluted 1:10 with a standard curve of a reference peptide with known concentration. The different UV extinction coefficients of sample and reference peptide were calculated based on the different amino acid sequences and considered in the concentration calculation.
Peptide samples were prepared in solubility buffer system A and solubility was assessed as described in Methods.

[4] = biological target: T2, human GIP receptor (hGIP-R) (Homo sapiens, UniProt P48546); assay: cAMP response (HTRF) of HEK-293 cells stably expressing human GIP receptor; assay type: cell-based; details: Table 8; cAMP formation
T2 construct: expressed in transfected cells; host or cells: HEK-293
T2 sequence (P48546 22-466): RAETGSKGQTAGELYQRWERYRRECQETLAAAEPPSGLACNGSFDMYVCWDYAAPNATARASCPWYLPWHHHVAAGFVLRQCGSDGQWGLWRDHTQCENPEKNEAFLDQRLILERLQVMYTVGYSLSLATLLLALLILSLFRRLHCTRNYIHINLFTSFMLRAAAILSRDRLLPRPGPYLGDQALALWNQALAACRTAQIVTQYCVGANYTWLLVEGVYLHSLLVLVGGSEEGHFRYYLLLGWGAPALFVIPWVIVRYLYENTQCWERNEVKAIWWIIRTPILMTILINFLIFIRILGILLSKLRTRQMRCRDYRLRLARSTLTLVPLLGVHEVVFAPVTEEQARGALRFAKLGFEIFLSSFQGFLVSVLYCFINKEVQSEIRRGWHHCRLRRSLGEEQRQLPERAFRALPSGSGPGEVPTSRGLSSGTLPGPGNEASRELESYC
Protocol: as §1, §2

[5] = Chemical stability assessment (UPLC-UV, relative purity loss); assay type: physicochemical; details: 1 mg/ml, 25 mM acetate buffer pH 4.5 with m-cresol (buffer system A)
Protocol: Prior to the chemical stability measurement of a peptide batch, its purity was determined through UPLC/MS. For stability testing the target concentration was 1 mg pure compound/ml. Therefore solutions from solid samples were prepared in a buffer system with a concentration of 1 mg/mL compound based on the previously determined % purity:
Chemical stability buffer system A) 25 mM acetate buffer pH4.5, 3 mg/mL L-Methionine, 2.7 mg/mL m-cresol, 18 mg/mL Glycerol 85%
Peptide solutions were filtered through […] pore size and filled into aliquots under aseptic conditions. At starting point UPLC-UV was performed by injection of 2 μl of the undiluted sample.
For chemical stability testing, aliquots were stored for 28 days at Sand 40° C. After this time course the samples were centrifuged for 15 min at 2500 RCF. Then 2 μl of the undiluted supernatant were analysed with UPLC-UV.
The chemical stability was rated through the relative loss of purity calculated by the equation: [(purity at starting point)−(purity after 28 days at X° C.)]/(purity at starting point)]*100%
The purity is calculated as [(peak area peptide)/(total peak area)]*100%
Peptide samples were prepared in Chemical stability buffer system A and chemical stability was assessed as described in Methods.

[6] = Dynamic light scattering (DLS), hydrodynamic radius as surrogate for interaction parameter kD; assay type: physicochemical
Protocol: For every peptide solution, the hydrodynamic radius Rh and the diffusion constant D (related via the Stokes-Einstein equation) were determined as an average over triplicates. Both parameters were determined at different concentrations (e.g., Rh1 and D1: 1 mg/ml and Rh5 and D5: 5 mg/ml) in the same buffer system. The difference of these parameters between low and high peptide concentration is a surrogate for the DLS interaction parameter kD. Rh5<Rh1 or D5>D1 correspond to kD>0 and therefore to repulsive inter-particle interactions that result in improved physical (or colloidal) stability.
DLS buffer system A) 25 mM acetate buffer pH4.5, 3 mg/mL L-Methionine, 2.7 mg/mL m-cresol, 18 mg/mL Glycerol 85%
DLS Method C: DLS measurements were performed on a DynaPro Plate Reader II (Wyatt Technology, Santa Barbara, Calif., US) and using one of the following black, low volume, and non-treated plates: polystyrene 384 assay plate with clear bottom (Corning, N.Y., US), polystyrene 96 assay plate with clear bottom (Corning, N.Y., US), cyclo olefin polymer (COP) 384 assay plate with clear bottom (Aurora, Mont., US), or polystyrene 384 assay plate with clear bottom (Greiner Bio-One, Germany). The data were processed with the Dynamics software provided by Wyatt Technology. Parameters of the particle size distribution were determined with non-negatively constrained least squares (NNLS) methods using DynaLS algorithms. Measurements were taken at 25° C. with an 830 nm laser light source at an angle of 158°.
The hydrodynamic radius radius Rh of peptide samples was determined at different peptide concentrations (1 mg/ml and 5 mg/ml) in DLS buffer system A using DLS method C as described in Methods as surrogate for the DLS interaction parameter kD.

EC50 [1]	Lag time before increase [2]	solubility at 1 h [3]	EC50 [4]	Chemical stability [relative purity loss 28 days 40° C.] (%) at pH 4.5 [5]	Delta Rh [nm] = Rh5 − Rh1 ([6]; DLS buffer system A pH 4.5)	Rh1 [nm] c= 1 mg/ml ([6]; hydrodynamic radius, 1 mg/ml, DLS buffer system A pH 4.5, DLS method C, 25° C.)	Rh5 [nm] c = 5 mg/ml ([6]; hydrodynamic radius, 5 mg/ml, DLS buffer system A pH 4.5, DLS method C, 25° C.)	SMILES
2.4 pM	>45 h							CCCCCCCCCCCCCCCC(=O)N[C@H](CCC(=O)NCCOCCOCC(=O)N[C@@H](CCC(=O)NCCCC[C@H](NC(=O)[C@H](CC(C)C)NC(=O)[C@H](CCCCN)NC(=O)[C@H](CO)NC(=O)[C@H](CC(C)C)NC(=O)[C@H](CC(=O)O)NC(=O)[C@H](CO)NC(=O)[C@@H](NC(=O)[C@H](Cc1ccccc1)NC(=O)[C@@H](NC(=O)CNC(=O)[C@H](CCC(N)=O)NC(=O)C(C)(C)NC(=O)[C@@H](N)Cc1c[nH]cn1)[C@@H](C)O)[C@@H](C)O)C(=O)N[C@@H](CCC(=O)O)C(=O)N[C@@H](CCCCN)C(=O)N[C@@H](CCC(N)=O)C(=O)N[C@@H](CCCNC(=N)N)C(=O)N[C@@H](CCC(N)=O)C(=O)NC(C)(C)C(=O)N[C@@H](CCC(=O)O)C(=O)N[C@@H](Cc1ccccc1)C(=O)N[C@H](C(=O)N[C@@H](CCC(=O)O)C(=O)N[C@@H](Cc1c[nH]c2ccccc12)C(=O)N[C@@H](CC(C)C)C(=O)N[C@@H](CCCCN)C(=O)N[C@@H](C)C(=O)NCC(=O)NCC(=O)N[C@@H](Cc1c[nH]cn1)C(=O)N1CCC[C@H]1C(=O)N[C@@H](CO)C(=O)NC(C)(C)C(=O)N[C@@H](CCCCN)C(=O)N1CCC[C@H]1C(=O)N1CCC[C@H]1C(=O)N1CCC[C@H]1C(=O)N[C@@H](CCCCN)C(N)=O)[C@@H](C)CC)C(=O)O)CC(=O)O [SEQ ID NO: 20, H-Aib-Q-G-T-F-T-S-D-L-S-K-L-K[gGlu-AEEA-gAAA-Palm]-E-K-Q-R-Q-Aib-E-F-I-E-W-L-K-A-G-G-H-P-S-Aib-K-P-P-P-K-NH2] (H-H[Aib]QGTFTSDLSKLK([γGlu-AEEA-Adipoyl(4R-palmitoylamino)])EKQRQ[Aib]EFIEWLKAGGHPS[Aib]KPPPK-NH2)
	>45 h	> 9200 µg/mL	7.9 pM	6.0%	−0.1 nm	3.1 nm	3.0 nm	CCCCCCCCCCCCCCCC(=O)NCCOCCOCC(=O)N[C@@H](CCC(=O)N[C@@H](CCC(=O)NCCCC[C@H](NC(=O)[C@H](CC(C)C)NC(=O)[C@H](CCCCN)NC(=O)[C@H](CO)NC(=O)[C@H](CC(C)C)NC(=O)[C@H](CC(=O)O)NC(=O)[C@H](CO)NC(=O)[C@@H](NC(=O)[C@H](Cc1ccccc1)NC(=O)[C@@H](NC(=O)CNC(=O)[C@H](CCC(N)=O)NC(=O)C(C)(C)NC(=O)[C@@H](N)Cc1c[nH]cn1)[C@@H](C)O)[C@@H](C)O)C(=O)N[C@@H](CCC(=O)O)C(=O)N[C@@H](CCC(=O)O)C(=O)N[C@@H](CCC(N)=O)C(=O)N[C@@H](CCCNC(=N)N)C(=O)N[C@@H](CCC(N)=O)C(=O)NC(C)(C)C(=O)N[C@@H](CCC(=O)O)C(=O)N[C@@H](Cc1ccccc1)C(=O)N[C@H](C(=O)N[C@@H](CCC(=O)O)C(=O)N[C@@H](Cc1c[nH]c2ccccc12)C(=O)N[C@@H](CC(C)C)C(=O)N[C@@H](CCCCN)C(=O)N[C@@H](C)C(=O)N[C@H](C)C(=O)NCC(=O)N[C@@H](Cc1c[nH]cn1)C(=O)N1CCC[C@H]1C(=O)N[C@@H](CO)C(=O)NC(C)(C)C(=O)N[C@@H](CCCCN)C(=O)N1CCC[C@H]1C(=O)N1CCC[C@H]1C(=O)N1CCC[C@H]1C(=O)N[C@@H](CCCCN)C(N)=O)[C@@H](C)CC)C(=O)O)C(=O)O [SEQ ID NO: 19, H-Aib-Q-G-T-F-T-S-D-L-S-K-L-K[gGlu-gGlu-AEEA-Palm]-E-E-Q-R-Q-Aib-E-F-I-E-W-L-K-A-dAla-G-H-P-S-Aib-K-P-P-P-K-NH2] (H-H[Aib]QGTFTSDLSKLK([γGlu-γGlu-AEEA-Palmitoyl])EEQRQ[Aib]EFIEWLKA[dA]GHPS[Aib]KPPPK-NH2)
